Data published in patent publication US20250064846A1, “TREATMENT AND PREVENTION OF TRIGEMINAL NEURALGIA” (THE JOHNS HOPKINS UNIVERSITY, priority 2022, published 2025).

Columns and labels:
NRF2 [1] = test: NRF2/ARE Luciferase Reporter Assay (HEK293 stable cell line); format: cell-based, human; details: 6 hrs exposure to varying concentrations, relative to vehicle, normalized to total protein
Description: NRF2/ARE Luciferase Reporter Assay NRF2 activity was monitored with a reporter cell line in which changes in NRF2 activity are coupled to the expression of firefly luciferase (NRF2/ARE Luciferase Reporter HEK293 Stable Cell Line). Luciferase activity was quantified with the Luciferase Assay System as per the manufacturer's instructions. Briefly, cells were plated at 125,000 cells/well in a 24-well plate. The following day, cells were treated with either vehicle or varying doses of sulforaphane, exemestane, or JQ-1 for 6 hours. Cells were then lysed in passive lysis buffer (Promega E1941) supplemented with protease inhibitors (Sigma). Lysates were then cleared at 16,000 g for 15 minutes at 4° C. 15 μL of each lysate was mixed with 5 μL of luciferase assay substrate (Promega). Total light was measured using a luminometer with a 10 second integration time with a delay of 2 seconds. Luciferase measurements were normalized to total protein and reported as normalized to the vehicle condition.

TRPA1 = target: T1, TRPA1 (Homo sapiens, UniProt O75762); test: Calcium imaging of HEK293 cells transiently expressing WT TRPA1; format: cell-based; details: for inhibition of TRPA1 channel activity: applied after 4-HNE, 1 μM exemestane, 100 μM JQ-1, 10 μM sulforaphane; for activation of TRPA1: exemestane 1-100 μm, JQ-1 as high as 100 μM, 10 μM sulforaphane
T1 construct: expressed in transfected cells; host or cells: HEK293
T1 sequence (O75762 whole entry): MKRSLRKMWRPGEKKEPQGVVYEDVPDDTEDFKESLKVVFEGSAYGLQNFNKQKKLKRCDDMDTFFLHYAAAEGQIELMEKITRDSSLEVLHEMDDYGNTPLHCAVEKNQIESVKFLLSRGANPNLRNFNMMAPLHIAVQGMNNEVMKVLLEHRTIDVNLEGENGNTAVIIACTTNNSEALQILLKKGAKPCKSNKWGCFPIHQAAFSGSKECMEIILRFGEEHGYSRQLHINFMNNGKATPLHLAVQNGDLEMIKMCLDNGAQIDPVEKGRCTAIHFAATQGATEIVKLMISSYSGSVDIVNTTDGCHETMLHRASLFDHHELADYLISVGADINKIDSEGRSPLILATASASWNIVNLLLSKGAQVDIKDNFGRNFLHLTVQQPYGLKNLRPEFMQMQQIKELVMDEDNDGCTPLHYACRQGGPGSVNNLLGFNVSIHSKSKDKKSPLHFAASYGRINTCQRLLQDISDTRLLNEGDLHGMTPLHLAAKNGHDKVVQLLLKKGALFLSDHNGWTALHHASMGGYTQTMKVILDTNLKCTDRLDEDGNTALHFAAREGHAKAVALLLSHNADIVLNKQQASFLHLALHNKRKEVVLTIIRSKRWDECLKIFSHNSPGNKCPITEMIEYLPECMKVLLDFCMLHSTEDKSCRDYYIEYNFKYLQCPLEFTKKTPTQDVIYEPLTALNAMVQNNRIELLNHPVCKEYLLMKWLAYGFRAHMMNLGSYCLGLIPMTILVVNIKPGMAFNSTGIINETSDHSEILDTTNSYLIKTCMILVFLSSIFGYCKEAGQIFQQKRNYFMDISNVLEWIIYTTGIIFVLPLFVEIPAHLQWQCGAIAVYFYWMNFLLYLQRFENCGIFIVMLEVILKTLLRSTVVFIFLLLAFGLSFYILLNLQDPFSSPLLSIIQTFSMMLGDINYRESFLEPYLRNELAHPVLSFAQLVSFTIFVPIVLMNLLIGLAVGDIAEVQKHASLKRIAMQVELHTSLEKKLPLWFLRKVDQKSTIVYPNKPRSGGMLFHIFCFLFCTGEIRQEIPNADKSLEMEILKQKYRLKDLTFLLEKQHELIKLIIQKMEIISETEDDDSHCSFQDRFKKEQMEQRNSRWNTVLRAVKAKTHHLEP
Description: Calcium Imaging and Analysis Calcium imaging and analysis was performed as previously described (See Meixiong, J. et al. Elife 8, (2019)). Briefly, cells were imaged in calcium imaging buffer (CIB; 10 mM HEPES, 1.2 mM NaHCO3, 130 mM NaCl, 3 mM KCl, 2.5 mM CaCl2, 0.6 mM MgCl2, 20 mM glucose, and 20 mM sucrose at pH 7.4 and 290-300 mOsm). To monitor changes in intracellular [Ca^2+]([Ca^2+]i), cells were loaded with either 1 μM Fura 2-AM (HEK293 cells) or 1 μM Fluo 4-AM (trigeminal neurons) for 30 min in the dark at 37° C. in CIB just prior to imaging. With Fura 2-AM, emission at 510 nm was monitored following excitation at both 340 nm and 380 nm. With Fluo 4-AM, emission at 520 nm was monitored following excitation at 488 nm. Cells were identified as positively responding if [Ca^2+]i rose by 15% compared to baseline. Damaged, detached, high-baseline, and motion-activated cells were excluded from analysis.
HEK293 cells were plated on poly-D-lysine-coated coverslips and transiently transfected with the vector backbone or constructs encoding WT or mutant TRPA1. Unless otherwise noted, cells were imaged for 30 s to establish a baseline before compounds were added. Vehicle was first applied for 30 s, after which 100 μM iodoacetamide, 1 mM H2O2, or 100 μM 4-HNE was applied. CSF from cases and controls was diluted into calcium imaging buffer 1:50 prior to each trial. 50 μM of the non-selective TRP channel inhibitor ruthenium red was applied at the end of every imaging trial.

NRF2 [2] = test: NRF2 stability, ubiquitination and nuclear translocation in HEK-293 cells overexpressing FLAG-KEAP1 and myc-NRF2; format: cell-based; details: for stabilization of NRF2 / nuclear translocation of NRF2: 10 μM for 6 hours; for nuclear translocation of NRF2: nuclear myc-NRF2 vs vehicle; for inhibition of NRF2 ubiquitination: HEK-293 cells overexpressing FLAG-KEAP1, myc-NRF2 and HA-ubiquitin
Description: To determine a ratio of KFAP1 to NRF2 cDNA that best mimics baseline NRF2 activity, luciferase activity was measured 48 h after transfection with varying ratios of KEAP1 to NRF2 cDNA, normalized to total protein (FIG. 21A). Luciferase expression is controlled by a promoter that contains several NRF2 binding sites and is thus a measure of NRF2 activity. A 2.5 μg KFAP1 to 1 μg NRF2 cDNA ratio returned luciferase activity to baseline and was therefore employed for subsequent biochemical studies evaluating NRF2 stability and nuclear translocation. FIGS. 21B and 21C show the quantification (FIG. 21B) and immunoblots (FIG. 21C) of myc-NRF2, GAPDH, and H2B in whole cell lysates and cytoplasmic and nuclear subcellular fractions of HEK-293 cells overexpressing FLAG-KEAP1 and myc-NRF2, treated with vehicle, 10 μM MG-132, 10 μM sulforaphane (SF), 10 μM exemestane, or 10 μM JQ-1 for 6 hours. Data are expressed as a normalized ratio of nuclear myc-NRF2 compared to the vehicle-treated condition. FIG. 21D is immunoblots of lysates (input) and myc immunoprecipitate (IP) from HEK-293 cells overexpressing FLAG-KEAP1, myc-NRF2, and HA-ubiquitin. Data are either representative of or quantified from n=3 independent experiments except in FIG. 21A, where n=1 in triplicate. In FIG. 21A, mean f SEM depicted. In FIG. 21B, median and range depicted. *=P<0.05 and ns=P>0.05 by one-way ANOVA followed by post-hoc Dunnett's test.

[3] = system: constrictive mouse model of trigeminal neuralgia; test: Cold allodynia (ice-cold acetone) after constriction of the maxillary nerve; format: in vivo; details: i.p. daily, sulforaphane 10 mg/kg; for cold allodynia (analgesic effect): NRF2−/− mice, exemestane 10 mg/kg, JQ-1 40 mg/kg

| Structure (SMILES) | luciferase expression in the NRF2 reporter line (NRF2 [1]) | inhibition of TRPA1 channel activity (TRPA1) | activation of TRPA1 (TRPA1) | stabilization of NRF2 (NRF2 [2]) | nuclear translocation of NRF2 (NRF2 [2]) | inhibition of NRF2 ubiquitination (NRF2 [2]) | cold allodynia (analgesic effect) [3] | cold allodynia ([3]; TRPA1−/− mice, compared with genetic deletion of TRPA1 alone) |
| --- | --- | --- | --- | --- | --- | --- | --- | --- |
| Cc1sc2c(c1C)C(c1ccc(Cl)cc1)=N[C@@H](CC(=O)OC(C)(C)C)c1nnc(C)n1-2 [JQ-1, (S)-tert-butyl 2-(4-(4-chlorophenyl)-2,3,9-trimethyl-6H-thieno[3,2-f][1,2,4]triazolo[4,3-a][1,4]diazepin-6-yl)acetate] | did not stimulate luciferase expression | Neither sulforaphane, exemestane, nor JQ-1 inhibited TRPA1 channel activity | do not activate TRPA1 | neither stabilizes NRF2 | does not | nor inhibits its ubiquitination | lowers |  |
| C=C1C[C@@H]2[C@H](CC[C@]3(C)C(=O)CC[C@@H]23)[C@@]2(C)C=CC(=O)C=C12 [exemestane, 6-methylenandrosta-1,4-diene-3,17-dione] | similarly increased luciferase expression | Neither sulforaphane, exemestane, nor JQ-1 inhibited TRPA1 channel activity | did not activate TRPA1 | both sulforaphane and exemestane do | promote nuclear translocation of NRF2 | both sulforaphane and exemestane do | lose their analgesic effects |  |
| C[S+]([O-])CCCCN=C=S (stereo not shown) [sulforaphane, 1-isothiocyanato-4-(methanesulfinyl)butane] | dose-dependently increased luciferase expression | Neither sulforaphane, exemestane, nor JQ-1 inhibited TRPA1 channel activity | Neither sulforaphane nor JQ-1 activate TRPA1 | both sulforaphane and exemestane do | promote nuclear translocation of NRF2 | both sulforaphane and exemestane do | lose their analgesic effects | did not lower |
